In patent US8580843B2, “Use of diindolylmethane (DIM) compounds and derivatives as neuroprotective agents” (Colorado State University Research Foundation, priority 2008, dated 2013):

What was measured:
[1] = tested on: NOS2 protein; assay: Immunoblotting of NOS2 protein in astrocytes exposed to MPTP and TNF-α/IFN-γ; assay type: cell-based, mouse; conditions: FIG. 7(C), concentration not given
From the text: Primary Cell Isolation. Cortical astrocytes were isolated from day-1 old C57B1/6 or transgenic mouse pups according to procedures described previously (Aschner and Kimelberg, 1991), and purity confirmed through immunofluorescent staining using antibodies against GFAP and Iba1. Briefly, pups were euthanized by decapitation under isofluorane anesthesia and cortices (astrocytes) or striatum (neurons) rapidly dissected out, and meninges removed. Tissue was subject to digestion with Dispase (1.5 U/ml), and selection of astrocytes was performed by complete media change 24 hrs after plating to remove non-astroglial cell types by serum shock. This method routinely results in cultures that are approximately 99% pure astrocytes, with less than 1% contaminating microglial cells (Supplementary FIG. 1). Astrocyte cultures were maintained at 37° C. and 5% CO2 in minimum essential media supplemented with 10% heat-inactivated fetal bovine serum and a penicillin (0.001 mg/ml), streptomycin (0.002 mg/ml), and neomycin (0.001) antibiotic cocktail. Cell media was changed 24 hrs prior to all treatments. […]
Western Blotting. […] Protein was quantified using the BCA assay (Pierce, Rockford Ill.), and 20 μg of protein were separated by standard SDS-PAGE using a 6% slab gel (BioRad, Hercules Calif.) followed by semi-dry transfer to polyvinylidene fluoride (PVDF) membrane (Pall Corp., Pensacola, Fla.). […]

[2] = tested on: NF-kB-regulated genes; assay: qPCR array analysis of NF-kB-regulated transcripts in primary astrocytes; assay type: cell-based; conditions: astrocytes + MPTP and TNF/IFN; DIM-C-pPhOCH3 1 uM, DIM-C-pPhtBu concentration not given; FIG. 11(A)
Method: Expression of inflammatory genes in astrocytes is largely regulated through the NF-kB signaling pathway. Primary cultured astrocytes were treated with MPTP and TNF/IFN in the presence or absence DIM-C-pPhOCH3 (DIMS, 1 uM), DIM-C-pPhtBu (DIM4), rosiglitazone (Ro, 10 uM), or vehicle (DMSO) and subjected to qPCR array analysis of NF-kB-regulated transcripts (Superarray Biosciences). […] (n=4 biological replicates)

[3] = tested on: NF-κB; assay: NF-κB EGFP reporter live-cell imaging in cis-NF-κB-EGFP transgenic astrocytes; assay type: cell-based, mouse; conditions: 10 μM, FIG. 4B
From the text: NF-κB reporter assays in cis-NF-κB^EGFP transgenic astrocytes and expression of mutant IκBα. To measure activation of NF-κB in live cell, astrocytes were isolated from a unique transgenic mouse expressing a reporter construct consisting of three HIV NF-κB consensus elements inserted 5′ to a minimal c-fos promoter that drives expression of enhanced green fluorescent protein (EGFP) (Magness et al., 2004) (Provided by Dr. Christian Jobin, University of North Carolina at Chapel Hill). NF-κB activity was determined by live-cell imaging using a Zeiss 20× air PlanApochromat objective using SlideBook v4.2 (Intelligent Imaging Innovations, Inc., Denver, Colo.). […] This approach was consistent between all replicates. At least four microscopic fields were examined per treatment group in each of at least three independent experiments, and reported as percent activated cells 8 hours following treatments. […]
A wide array of inflammatory genes, including Nos2, are driven by the NF-κB signaling cascade. […] Real-time imaging of GFP fluorescence was performed in control transgenic astrocytes exposed to saline and in cells exposed to MPTP and TNF-α/IFN-γ in combination with DIM-C-pPhtBu (10 μM), rosiglitazone (10 μM), or DMSO. […]

Row | Structure (SMILES) | Suppression of NOS2 protein expression [1] | Neuroinflammatory gene expression (TNF Receptor, Toll Receptor, Interleukin 1beta) [2] | Suppression of MPTP+TNF-α/IFN-γ induced increase in total cellular GFP fluorescence (NF-κB activity) [3]
1 | COc1ccc(C(c2c[nH]c3ccccc23)c2c[nH]c3ccccc23)cc1 [DIM-C-pPhOCH3, 1,1-bis(3′-indolyl)-1-(p-methoxyphenyl)methane] | suppression of NOS2 protein expression | suppressed neuroinflammatory gene expression | –
2 | CC(C)(C)c1ccc(C(c2c[nH]c3ccccc23)c2c[nH]c3ccccc23)cc1 [DIM-C-pPhtBu, 1,1-bis(3′-indolyl)-1-(p-t-butylphenyl)methane] | – | suppressed neuroinflammatory gene expression | completely suppressed
3 | CN(CCOc1ccc(CC2SC(=O)NC2=O)cc1)c1ccccn1 (stereo not drawn) [rosiglitazone, 5-((4-(2-(methyl-2-pyridinylamino)ethoxy)phenyl)methyl)-2,4-thiazolidinedione, reference compound] | suppression of NOS2 protein expression | – | completely suppressed
